Legend:
[1] = target: Tyrosine-protein kinase JAK2 (Homo sapiens) (UniProt O60674); conditions: Compound concentration 1000.0 nM
[2] = target: AP2-associated protein kinase 1 (Homo sapiens) (UniProt Q2M2I8); conditions: Compound concentration 1000.0 nM
[3] = target: Myosin light chain kinase, smooth muscle (Homo sapiens) (UniProt Q15746); conditions: Compound concentration 1000.0 nM
[4] = target: Serine/threonine-protein kinase SIK2 (Homo sapiens) (UniProt Q9H0K1); conditions: Compound concentration 1000.0 nM
[5] = target: Ribosomal protein S6 kinase alpha-4 (Homo sapiens) (UniProt O75676); conditions: Compound concentration 1000.0 nM
[6] = target: Cyclin-dependent kinase-like 1 (Homo sapiens) (UniProt Q00532); conditions: Compound concentration 1000.0 nM
[7] = target: Casein kinase I isoform alpha (Homo sapiens) (UniProt P48729); conditions: Compound concentration 1000.0 nM
[8] = target: Kappa-type opioid receptor (Homo sapiens) (UniProt P41145); conditions: Compound concentration 10.0 uM
[9] = target: Mitogen-activated protein kinase kinase kinase 15 (Homo sapiens) (UniProt Q6ZN16); conditions: Compound concentration 1000.0 nM
[10] = test system: Receptor-type tyrosine-protein kinase FLT3 (Homo sapiens), P36888 [UNDEFINED MUTATION]; conditions: Compound concentration 1000.0 nM
[11] = target: Ribosomal protein S6 kinase alpha-3 (Homo sapiens) (UniProt P51812); conditions: Compound concentration 1000.0 nM
[12] = target: Phosphatidylinositol 4,5-bisphosphate 3-kinase catalytic subunit alpha isoform (Homo sapiens) (UniProt P42336); conditions: Compound concentration 1000.0 nM
[13] = target: Casein kinase I isoform epsilon (Homo sapiens) (UniProt P49674); conditions: Compound concentration 1000.0 nM
[14] = target: Alpha-1B adrenergic receptor (Homo sapiens) (UniProt P35368); conditions: Compound concentration 10.0 uM
[15] = target: cAMP-dependent protein kinase catalytic subunit beta (Homo sapiens) (UniProt P22694); conditions: Compound concentration 1000.0 nM
[16] = target: Platelet-derived growth factor receptor alpha (Homo sapiens) (UniProt P16234); conditions: Compound concentration 1000.0 nM
[17] = test system: Phosphatidylinositol 4,5-bisphosphate 3-kinase catalytic subunit alpha isoform (Homo sapiens), P42336 [E545A]; conditions: Compound concentration 1000.0 nM
[18] = target: Tyrosine-protein kinase receptor TYRO3 (Homo sapiens) (UniProt Q06418); conditions: Compound concentration 1000.0 nM
[19] = target: Ephrin type-A receptor 3 (Homo sapiens) (UniProt P29320); conditions: Compound concentration 1000.0 nM
[20] = test system: Tyrosine-protein kinase ABL1 (Homo sapiens), P00519 [Q252H]; conditions: Compound concentration 1000.0 nM
[21] = target: Serine/threonine-protein kinase D2 (Homo sapiens) (UniProt Q9BZL6); conditions: Compound concentration 1000.0 nM
[22] = test system: Tyrosine-protein kinase ABL1 (Homo sapiens), P00519 [F317I]; conditions: Compound concentration 1000.0 nM
[23] = target: Myotonin-protein kinase (Homo sapiens) (UniProt Q09013); conditions: Compound concentration 1000.0 nM
[24] = target: Mitotic checkpoint serine/threonine-protein kinase BUB1 (Homo sapiens) (UniProt O43683); conditions: Compound concentration 1000.0 nM
[25] = target: Dual specificity protein kinase CLK4 (Homo sapiens) (UniProt Q9HAZ1); conditions: Compound concentration 1000.0 nM
[26] = target: Receptor tyrosine-protein kinase erbB-3 (Homo sapiens) (UniProt P21860); conditions: Compound concentration 1000.0 nM
[27] = target: Phosphatidylinositol 4,5-bisphosphate 3-kinase catalytic subunit beta isoform (Homo sapiens) (UniProt P42338); conditions: Compound concentration 1000.0 nM
[28] = test system: Epidermal growth factor receptor (Homo sapiens), P00533 [G719S]; conditions: Compound concentration 1000.0 nM
[29] = target: Serine/threonine-protein kinase D3 (Homo sapiens) (UniProt O94806); conditions: Compound concentration 1000.0 nM
[30] = target: Serine/threonine-protein kinase DCLK2 (Homo sapiens) (UniProt Q8N568); conditions: Compound concentration 1000.0 nM
[31] = target: Dual specificity tyrosine-phosphorylation-regulated kinase 1A (Homo sapiens) (UniProt Q13627); conditions: Compound concentration 1000.0 nM
[32] = target: 5-hydroxytryptamine receptor 2A (Homo sapiens, UniProt P28223); conditions: Compound concentration 10.0 uM
[33] = target: Cannabinoid receptor 2 (Homo sapiens, UniProt P34972); experiment: Radioligand Binding Assay (CNR2)
[34] = target: Interleukin-1 receptor-associated kinase 3 (Homo sapiens) (UniProt Q9Y616); conditions: Compound concentration 1000.0 nM
[35] = target: Serine/threonine-protein kinase PLK2 (Homo sapiens) (UniProt Q9NYY3); conditions: Compound concentration 1000.0 nM
[36] = target: TRAF2 and NCK-interacting protein kinase (Homo sapiens) (UniProt Q9UKE5); conditions: Compound concentration 1000.0 nM
[37] = target: Cyclin-dependent kinase 4 (Homo sapiens) (UniProt P11802); conditions: Compound concentration 1000.0 nM
[38] = target: Cyclin-dependent kinase 18 (Homo sapiens) (UniProt Q07002); conditions: Compound concentration 1000.0 nM
[39] = target: Dual specificity protein kinase TTK (Homo sapiens) (UniProt P33981); conditions: Compound concentration 1000.0 nM
[40] = target: Cyclin-dependent kinase 15 (Homo sapiens) (UniProt Q96Q40); conditions: Compound concentration 1000.0 nM
[41] = target: Mitogen-activated protein kinase kinase kinase 13 (Homo sapiens) (UniProt O43283); conditions: Compound concentration 1000.0 nM
[42] = target: Calcium/calmodulin-dependent protein kinase type II subunit alpha (Homo sapiens) (UniProt Q9UQM7); conditions: Compound concentration 1000.0 nM
[43] = target: Macrophage colony-stimulating factor 1 receptor (Homo sapiens) (UniProt P07333); conditions: Compound concentration 1000.0 nM
[44] = target: Ribosomal protein S6 kinase alpha-3 (Homo sapiens) (UniProt P51812); conditions: Compound concentration 1000.0 nM; remark: listed apart in the source
[45] = target: Leucine-rich repeat serine/threonine-protein kinase 2 (Homo sapiens) (UniProt Q5S007); conditions: Compound concentration 1000.0 nM

Ribosomal protein S6 kinase alpha-3 (Homo sapiens), sequence (P51812 whole entry, canonical isoform): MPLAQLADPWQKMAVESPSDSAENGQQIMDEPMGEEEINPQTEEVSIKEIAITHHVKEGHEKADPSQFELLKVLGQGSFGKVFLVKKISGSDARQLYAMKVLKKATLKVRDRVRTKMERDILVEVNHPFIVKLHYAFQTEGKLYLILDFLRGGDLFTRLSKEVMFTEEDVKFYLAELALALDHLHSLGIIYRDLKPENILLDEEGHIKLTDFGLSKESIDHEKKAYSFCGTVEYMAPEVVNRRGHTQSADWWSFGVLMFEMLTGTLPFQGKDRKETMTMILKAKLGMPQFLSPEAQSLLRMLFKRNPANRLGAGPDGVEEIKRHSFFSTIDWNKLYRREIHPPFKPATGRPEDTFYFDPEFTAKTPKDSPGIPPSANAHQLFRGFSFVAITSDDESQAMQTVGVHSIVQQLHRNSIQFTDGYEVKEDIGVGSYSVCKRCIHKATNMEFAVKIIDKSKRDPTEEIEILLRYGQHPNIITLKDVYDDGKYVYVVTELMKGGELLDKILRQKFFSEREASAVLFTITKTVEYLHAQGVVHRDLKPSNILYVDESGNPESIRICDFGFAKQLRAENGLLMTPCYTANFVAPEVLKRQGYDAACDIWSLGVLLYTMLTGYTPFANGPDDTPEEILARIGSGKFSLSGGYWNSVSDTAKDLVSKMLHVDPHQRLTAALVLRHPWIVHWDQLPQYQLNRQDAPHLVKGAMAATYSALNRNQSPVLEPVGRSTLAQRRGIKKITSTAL
AP2-associated protein kinase 1 (Homo sapiens), sequence (Q2M2I8 whole entry, looked up): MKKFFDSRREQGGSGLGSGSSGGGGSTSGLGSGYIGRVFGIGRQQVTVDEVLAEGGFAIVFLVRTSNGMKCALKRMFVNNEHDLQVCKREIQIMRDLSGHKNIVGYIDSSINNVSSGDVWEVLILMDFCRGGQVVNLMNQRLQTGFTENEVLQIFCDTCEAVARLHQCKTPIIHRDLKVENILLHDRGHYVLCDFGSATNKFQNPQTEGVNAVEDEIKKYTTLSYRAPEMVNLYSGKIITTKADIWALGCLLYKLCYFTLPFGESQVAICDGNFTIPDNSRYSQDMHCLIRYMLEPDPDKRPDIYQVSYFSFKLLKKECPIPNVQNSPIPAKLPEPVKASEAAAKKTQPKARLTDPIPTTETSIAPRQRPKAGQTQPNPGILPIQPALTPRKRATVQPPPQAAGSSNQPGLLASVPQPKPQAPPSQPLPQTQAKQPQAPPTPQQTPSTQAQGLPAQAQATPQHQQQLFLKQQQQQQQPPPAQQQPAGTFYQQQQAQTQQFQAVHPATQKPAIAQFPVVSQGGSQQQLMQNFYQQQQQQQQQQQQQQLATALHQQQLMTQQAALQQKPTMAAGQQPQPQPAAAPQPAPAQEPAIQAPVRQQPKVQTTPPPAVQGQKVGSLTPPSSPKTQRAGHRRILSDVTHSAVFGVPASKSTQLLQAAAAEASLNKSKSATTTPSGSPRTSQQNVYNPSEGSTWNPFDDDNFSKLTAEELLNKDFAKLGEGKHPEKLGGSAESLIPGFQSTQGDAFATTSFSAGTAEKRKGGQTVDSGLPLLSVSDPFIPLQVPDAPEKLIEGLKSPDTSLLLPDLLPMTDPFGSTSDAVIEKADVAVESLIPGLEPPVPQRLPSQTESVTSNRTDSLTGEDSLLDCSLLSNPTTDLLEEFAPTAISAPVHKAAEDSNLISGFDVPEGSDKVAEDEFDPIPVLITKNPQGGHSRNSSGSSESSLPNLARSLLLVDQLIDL
Mitotic checkpoint serine/threonine-protein kinase BUB1 (Homo sapiens), sequence (O43683 whole entry, looked up): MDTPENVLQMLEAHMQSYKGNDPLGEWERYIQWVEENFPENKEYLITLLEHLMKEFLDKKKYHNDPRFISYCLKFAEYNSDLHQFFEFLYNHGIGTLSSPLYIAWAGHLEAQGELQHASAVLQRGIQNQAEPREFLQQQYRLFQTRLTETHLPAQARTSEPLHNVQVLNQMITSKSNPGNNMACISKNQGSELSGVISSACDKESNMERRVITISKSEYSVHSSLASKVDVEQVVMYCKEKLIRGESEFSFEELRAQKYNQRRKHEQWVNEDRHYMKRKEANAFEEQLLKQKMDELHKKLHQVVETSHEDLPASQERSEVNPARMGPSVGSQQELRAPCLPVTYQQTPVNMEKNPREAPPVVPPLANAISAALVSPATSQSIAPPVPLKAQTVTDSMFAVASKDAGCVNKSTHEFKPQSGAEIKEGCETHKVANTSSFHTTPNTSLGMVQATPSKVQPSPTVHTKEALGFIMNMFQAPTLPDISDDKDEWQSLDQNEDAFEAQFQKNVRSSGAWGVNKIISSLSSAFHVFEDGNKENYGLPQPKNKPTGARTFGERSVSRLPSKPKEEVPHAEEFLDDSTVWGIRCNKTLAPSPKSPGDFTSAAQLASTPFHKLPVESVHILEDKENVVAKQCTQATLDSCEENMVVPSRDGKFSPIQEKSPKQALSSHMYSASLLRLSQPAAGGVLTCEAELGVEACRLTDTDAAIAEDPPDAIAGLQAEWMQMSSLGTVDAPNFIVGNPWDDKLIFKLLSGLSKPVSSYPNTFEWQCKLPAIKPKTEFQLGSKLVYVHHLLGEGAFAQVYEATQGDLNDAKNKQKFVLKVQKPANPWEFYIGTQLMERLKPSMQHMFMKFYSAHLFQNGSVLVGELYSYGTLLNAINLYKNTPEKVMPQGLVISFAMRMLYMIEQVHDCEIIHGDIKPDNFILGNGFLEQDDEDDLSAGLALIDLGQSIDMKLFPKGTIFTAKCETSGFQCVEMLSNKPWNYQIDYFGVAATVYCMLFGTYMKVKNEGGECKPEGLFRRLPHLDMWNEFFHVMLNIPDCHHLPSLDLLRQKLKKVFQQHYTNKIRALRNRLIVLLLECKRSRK
Calcium/calmodulin-dependent protein kinase type II subunit alpha (Homo sapiens), sequence (Q9UQM7 whole entry): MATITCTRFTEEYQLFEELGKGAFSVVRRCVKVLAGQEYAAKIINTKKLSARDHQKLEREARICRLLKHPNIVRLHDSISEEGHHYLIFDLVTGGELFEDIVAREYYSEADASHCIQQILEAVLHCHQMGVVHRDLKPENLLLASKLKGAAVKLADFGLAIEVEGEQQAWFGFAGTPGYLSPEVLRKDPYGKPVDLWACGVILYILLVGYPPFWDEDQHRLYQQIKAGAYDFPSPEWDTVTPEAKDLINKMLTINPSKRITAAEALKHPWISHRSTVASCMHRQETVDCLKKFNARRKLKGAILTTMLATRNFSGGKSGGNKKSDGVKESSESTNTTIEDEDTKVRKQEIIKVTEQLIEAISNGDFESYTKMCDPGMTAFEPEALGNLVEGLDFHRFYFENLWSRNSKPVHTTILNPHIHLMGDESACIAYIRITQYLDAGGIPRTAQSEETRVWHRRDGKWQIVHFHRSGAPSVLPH
Ephrin type-A receptor 3 (Homo sapiens), sequence (P29320 whole entry): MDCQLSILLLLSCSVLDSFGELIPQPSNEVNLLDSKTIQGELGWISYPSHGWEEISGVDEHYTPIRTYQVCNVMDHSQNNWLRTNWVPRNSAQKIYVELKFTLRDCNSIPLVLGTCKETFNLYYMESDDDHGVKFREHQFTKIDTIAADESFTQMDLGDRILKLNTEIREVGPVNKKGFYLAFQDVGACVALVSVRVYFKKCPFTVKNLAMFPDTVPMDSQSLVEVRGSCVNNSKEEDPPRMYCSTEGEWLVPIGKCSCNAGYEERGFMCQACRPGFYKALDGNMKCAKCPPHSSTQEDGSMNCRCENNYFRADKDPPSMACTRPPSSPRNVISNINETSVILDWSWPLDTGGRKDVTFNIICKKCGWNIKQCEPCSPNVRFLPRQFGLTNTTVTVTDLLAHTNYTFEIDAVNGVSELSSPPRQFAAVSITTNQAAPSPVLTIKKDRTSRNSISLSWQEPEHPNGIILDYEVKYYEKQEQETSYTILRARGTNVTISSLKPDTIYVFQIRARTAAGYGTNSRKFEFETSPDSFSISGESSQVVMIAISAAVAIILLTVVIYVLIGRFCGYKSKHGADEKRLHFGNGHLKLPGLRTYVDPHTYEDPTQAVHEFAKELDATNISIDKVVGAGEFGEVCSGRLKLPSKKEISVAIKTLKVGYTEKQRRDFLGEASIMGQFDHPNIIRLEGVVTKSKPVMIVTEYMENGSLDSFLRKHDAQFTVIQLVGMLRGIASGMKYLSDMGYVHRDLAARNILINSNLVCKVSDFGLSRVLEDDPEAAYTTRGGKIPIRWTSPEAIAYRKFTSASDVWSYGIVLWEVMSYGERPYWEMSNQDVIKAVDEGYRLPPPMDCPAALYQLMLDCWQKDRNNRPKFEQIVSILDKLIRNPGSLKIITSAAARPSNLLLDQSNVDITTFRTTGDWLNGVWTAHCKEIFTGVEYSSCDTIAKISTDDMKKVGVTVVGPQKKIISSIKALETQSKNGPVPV
Casein kinase I isoform alpha (Homo sapiens), sequence (P48729 2-337 limits assumed): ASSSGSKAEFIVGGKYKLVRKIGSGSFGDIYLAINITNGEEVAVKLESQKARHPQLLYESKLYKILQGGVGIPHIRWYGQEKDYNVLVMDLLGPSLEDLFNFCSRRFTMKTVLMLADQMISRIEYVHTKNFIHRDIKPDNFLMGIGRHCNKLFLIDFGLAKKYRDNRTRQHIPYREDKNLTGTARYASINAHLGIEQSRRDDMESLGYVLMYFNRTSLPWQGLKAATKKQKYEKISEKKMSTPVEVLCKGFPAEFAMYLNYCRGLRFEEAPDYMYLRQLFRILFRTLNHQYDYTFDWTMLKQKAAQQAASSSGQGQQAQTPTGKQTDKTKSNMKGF
Cyclin-dependent kinase 18 (Homo sapiens), sequence (Q07002 whole entry): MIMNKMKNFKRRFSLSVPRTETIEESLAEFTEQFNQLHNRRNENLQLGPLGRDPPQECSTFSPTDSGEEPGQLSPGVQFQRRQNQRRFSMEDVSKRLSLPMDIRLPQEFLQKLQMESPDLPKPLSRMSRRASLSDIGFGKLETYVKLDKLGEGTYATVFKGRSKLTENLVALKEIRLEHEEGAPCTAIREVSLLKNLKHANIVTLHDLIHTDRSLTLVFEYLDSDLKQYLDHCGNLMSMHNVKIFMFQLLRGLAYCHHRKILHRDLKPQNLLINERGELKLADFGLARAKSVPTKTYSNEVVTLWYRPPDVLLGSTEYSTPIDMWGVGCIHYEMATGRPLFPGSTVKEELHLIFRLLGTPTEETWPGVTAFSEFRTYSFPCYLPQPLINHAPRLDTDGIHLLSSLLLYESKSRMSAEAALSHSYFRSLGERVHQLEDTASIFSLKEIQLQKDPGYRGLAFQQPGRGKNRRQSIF

CC(=O)c1c(NS(C)(=O)=O)c2cc(-c3ccc(Cl)cc3)c(-c3ccc(Cl)cc3Cl)nc2n(C)c1=O [MRL-CB1-NC]
active: inhibition [32] 78.8%
inactive: residual activity [1] 97% | residual activity [2] 100% | residual activity [3] 93% | residual activity [4] 100% | residual activity [5] 93% | residual activity [6] 91% | residual activity [7] 100% | inhibition [8] 2.99% | residual activity [9] 91% | residual activity [10] 87% | residual activity [11] 75% | residual activity [12] 100% | residual activity [13] 100% | inhibition [14] 47.2% | residual activity [15] 92% | residual activity [16] 88% | residual activity [17] 100% | residual activity [18] 64% | residual activity [19] 92% | residual activity [20] 76% | residual activity [21] 88% | residual activity [22] 76% | residual activity [23] 89% | residual activity [24] 76% | residual activity [25] 100% | residual activity [26] 85% | residual activity [27] 100% | residual activity [28] 100% | residual activity [29] 100% | residual activity [30] 96% | residual activity [31] 77% | Inverse agonism [33] 38.3% | residual activity [34] 100% | residual activity [35] 96% | residual activity [36] 93% | residual activity [37] 100% | residual activity [38] 100% | residual activity [39] 100% | residual activity [40] 100% | residual activity [41] 71% | residual activity [42] 100% | residual activity [43] 100% | residual activity [44] 100% | residual activity [45] 65%

CC(=O)Nc1c(C(C)=O)c(=O)n(C)c2nc(-c3ccc(Cl)cc3Cl)c(-c3ccc(Cl)cc3)cc12 [NAPHTHYRIDINONE]
4.63 µM (not active): IC50 [33]
inactive: residual activity [1] 100% | residual activity [2] 100% | residual activity [3] 100% | residual activity [4] 100% | residual activity [5] 100% | residual activity [6] 100% | residual activity [7] 100% | inhibition [8] 7.96% | residual activity [9] 100% | residual activity [10] 100% | residual activity [11] 90% | residual activity [12] 100% | residual activity [13] 100% | inhibition [14] 17.1% | residual activity [15] 100% | residual activity [16] 100% | residual activity [17] 85% | residual activity [18] 68% | residual activity [19] 100% | residual activity [20] 72% | residual activity [21] 100% | residual activity [22] 77% | residual activity [23] 100% | residual activity [24] 92% | residual activity [25] 100% | residual activity [26] 100% | residual activity [27] 100% | residual activity [28] 100% | residual activity [29] 100% | residual activity [30] 100% | residual activity [31] 100% | inhibition [32] 21.8% | residual activity [34] 95% | residual activity [35] 100% | residual activity [36] 100% | residual activity [37] 100% | residual activity [38] 100% | residual activity [39] 100% | residual activity [40] 100% | residual activity [41] 100% | residual activity [42] 100% | residual activity [43] 100% | residual activity [44] 99% | residual activity [45] 100%

Reference: ChEMBL document CHEMBL4507287, “Data for DCP probe MRL-650” (2021)
